Consider 29 molecules from ChEMBL document CHEMBL1811787, “Identification of the binding modes of N-phenylphthalimides inhibiting bacterial thymidylate synthase through X-ray crystallography screening” (J Med Chem, 2011).

The target of assay [1] is T1, Thymidylate synthase (Homo sapiens, UniProt P04818). The experiment in a line: Inhibition of human thymidylate synthase using N5,N10-methylene tetrahydrofolate at 50 uM by chromogenic assay.
Target sequence in this assay (P04818 2-313 limits assumed): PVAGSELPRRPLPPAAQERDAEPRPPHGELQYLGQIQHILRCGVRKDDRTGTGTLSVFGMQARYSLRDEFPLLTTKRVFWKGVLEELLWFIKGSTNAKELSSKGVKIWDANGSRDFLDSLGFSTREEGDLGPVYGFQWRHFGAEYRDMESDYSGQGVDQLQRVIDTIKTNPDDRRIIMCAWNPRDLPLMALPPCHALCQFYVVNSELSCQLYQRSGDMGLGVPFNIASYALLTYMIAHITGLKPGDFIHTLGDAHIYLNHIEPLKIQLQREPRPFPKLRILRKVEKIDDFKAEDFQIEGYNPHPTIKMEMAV
Assay [2] concerns the target T2, Thymidylate synthase (Enterococcus faecalis (strain ATCC 700802 / V583), UniProt Q834R3).
T2 sequence (Q834R3 whole entry): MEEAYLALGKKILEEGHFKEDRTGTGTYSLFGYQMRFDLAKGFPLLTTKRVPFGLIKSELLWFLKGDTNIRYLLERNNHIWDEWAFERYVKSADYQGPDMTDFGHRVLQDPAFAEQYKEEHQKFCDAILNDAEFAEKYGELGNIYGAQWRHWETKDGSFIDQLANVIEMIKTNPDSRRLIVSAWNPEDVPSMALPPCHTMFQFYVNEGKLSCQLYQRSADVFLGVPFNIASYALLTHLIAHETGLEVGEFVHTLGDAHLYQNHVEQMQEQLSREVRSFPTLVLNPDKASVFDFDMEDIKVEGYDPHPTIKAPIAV
The experiment in a line: Inhibition of Enterococcus faecalis thymidylate synthase using N5,N10-methylene tetrahydrofolate by chromogenic assay.

Assay [3] addresses T3, Thymidylate synthase (Lactobacillus casei, UniProt P00469).
T3 sequence (P00469 whole entry): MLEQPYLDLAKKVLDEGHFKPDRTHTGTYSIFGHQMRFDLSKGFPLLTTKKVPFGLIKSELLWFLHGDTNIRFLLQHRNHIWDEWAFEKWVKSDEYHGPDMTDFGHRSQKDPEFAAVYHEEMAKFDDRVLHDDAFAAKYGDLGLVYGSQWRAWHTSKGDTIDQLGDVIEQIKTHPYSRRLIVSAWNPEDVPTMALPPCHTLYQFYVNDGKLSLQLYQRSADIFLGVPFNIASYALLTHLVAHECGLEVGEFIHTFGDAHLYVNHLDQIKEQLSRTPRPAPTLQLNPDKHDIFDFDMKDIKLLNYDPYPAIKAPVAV
The experiment in a line: Inhibition of Lactobacillus casei thymidylate synthase using N5,N10-methylene tetrahydrofolate by chromogenic assay. Further details: species or system Lacticaseibacillus casei.

Assay [4] in a line: Inhibition of Escherichia coli thymidylate synthase using N5,N10-methylene tetrahydrofolate by chromogenic assay.
The target in assay [5] is T4, Thymidylate synthase (Enterococcus faecalis (strain ATCC 700802 / V583)) (UniProt Q834R3).
T4 sequence (whole entry): T2 sequence (Q834R3 whole entry)
The experiment in a line: Inhibition of Enterococcus faecalis thymidylate synthase using N5,N10-methylene tetrahydrofolate at 50 uM by chromogenic assay.

In assay [6] the target is T1, Thymidylate synthase.
Target sequence in this assay (P04818 whole entry): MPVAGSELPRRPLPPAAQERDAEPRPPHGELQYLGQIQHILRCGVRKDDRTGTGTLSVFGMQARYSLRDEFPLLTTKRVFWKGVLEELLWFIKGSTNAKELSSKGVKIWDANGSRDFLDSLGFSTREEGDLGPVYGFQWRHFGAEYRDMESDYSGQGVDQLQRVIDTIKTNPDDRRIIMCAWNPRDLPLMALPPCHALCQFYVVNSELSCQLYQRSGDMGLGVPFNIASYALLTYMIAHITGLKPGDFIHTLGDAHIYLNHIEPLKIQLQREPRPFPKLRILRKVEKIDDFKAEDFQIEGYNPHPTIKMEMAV
Description: Inhibition of human thymidylate synthase using N5,N10-methylene tetrahydrofolate by chromogenic assay
In assay [7] the target is T5, Thymidylate synthase (Lactobacillus casei) (UniProt P00469).
T5 sequence (whole entry): T3 sequence (P00469 whole entry)
In words: Inhibition of Lactobacillus casei thymidylate synthase using N5,N10-methylene tetrahydrofolate at 50 uM by chromogenic assay. To be noted: Lacticaseibacillus casei.

The source made the active and inactive calls. The calls are words filed in the database; no cut-off is given here.

What is called Ki is the dissociation constant of the complex between target and ligand, obtained from inhibition or displacement. A low value points to a stronger hold on the target. In the case of `Cc1cccc2c1C(=O)N(c1ccnc(Cl)c1)C2=O`, in assay [1], the inhibition result was “inactive”. For the same molecule, the Ki in assay [2] stood at 7 µM; in assay [3], 23 µM; in assay [4], 111 µM.
Take `CN1C(=O)c2cccc(CNc3ccc(C(=O)c4ccccc4)cc3)c2C1=O`: the inhibition result in assay [1] and in assay [5] was “inactive” in each case. For the same molecule, the figures for the Ki in assay [3] and in assay [4] were 14 µM and 82 µM, respectively.
On to `COCCCNCc1cccc2c1C(=O)N(C)C2=O`, for which the results for the Ki in assay [2] and in assay [3] were 183 µM and 41 µM, respectively.
Turning to `Cc1cccc2c1C(=O)N(c1ccc(C(=O)NCC(=O)O)cc1)C2=O`, the Ki in assay [2] was determined as 11 µM; in assay [3], 3 µM; in assay [4] it was 42 µM.
Regarding `CN1C(=O)c2cccc(CNCCc3cccs3)c2C1=O`, the inhibition entry in assay [1] and in assay [5] was “inactive” in each case. In assay [4], this molecule gave a Ki of 61 µM.
As for `Cc1cccc2c1C(=O)N(c1cccc3[nH]ccc13)C2=O`, the inhibition entry in assay [1] is “inactive”. For the same molecule, the Ki in assay [2] was 26 µM; in assay [3], 25 µM.
As for `Cc1cc(N2C(=O)c3cccc(C)c3C2=O)ccc1N1C(=O)c2ccc(Cl)cc2C1=O`, the inhibition entry in assay [1] and in assay [5] was “inactive” in each case. The Ki was determined as 36 µM in assay [3] and 33 µM in assay [4].
`Cc1cccc2c1C(=O)N(c1ccc(C(=N)N)cc1)C2=O`: the inhibition result in assay [1] and in assay [5] was “inactive” throughout. This molecule also showed a Ki in assay [3] of 9 µM.
Turning to `CN1C(=O)c2cccc(CNc3ccc(C(=O)O)cn3)c2C1=O`, the inhibition result in assay [1] and in assay [5] was “inactive” throughout. In assay [3], this molecule registered a Ki of 27 µM.
Take `CN1C(=O)c2cccc(CBr)c2C1=O`: the inhibition entry in assay [1] and in assay [5] was “inactive” each time. This molecule showed a Ki in assay [3] of 95 µM.
Turning to `Cc1cccc2c1C(=O)N(c1cc(-c3ccccc3)ccc1O)C2=O`, the Ki in assay [2] came out at 2 µM; in assay [3], 3 µM; in assay [4], 3 µM.
Consider `Cc1cccc2c1C(=O)N(c1nccs1)C2=O`, for which, in assay [1], the inhibition entry was “inactive”. For the same molecule, the Ki in assay [2] stood at 11 µM; in assay [3], 3 µM.
In the case of `CC(=O)c1ccc(N2C(=O)c3cccc(C)c3C2=O)cc1`, the inhibition entry in assay [1] and in assay [5] was “inactive” in each case. Also, the Ki in assay [3] turned out to be 6 µM; in assay [4] it was 41 µM.
For `O=C1OC(c2ccc(O)c(Cl)c2)(c2ccc(O)c(Cl)c2)c2cccc3cccc1c23`, affinity in assay [4] was put at a Ki of 0.6 µM.
As for `Cc1cccc2c1C(=O)N(CCc1cccs1)C2=O`, the inhibition entry in assay [1] and in assay [5] was “inactive” each time. Besides, the affinity in assay [3], expressed as Ki, was 44 µM.
For `CCOC(=O)c1ccc(NCc2cccc3c2C(=O)N(C)C3=O)cc1`, the inhibition result in assay [1] was “inactive”. The Ki in assay [2] stood at 109 µM; in assay [3], 56 µM.
`Cc1cccc2c1C(=O)N(c1cccc(C(=O)O)c1)C2=O` displayed a Ki in assay [3] of 69 µM. For the same molecule, the inhibition result in assay [5] was “inactive”.
With `Cc1cccc2c1C(=O)N(c1ccc(-n3ccnc3)cc1)C2=O`, the Ki in assay [6] is 206 µM; in assay [2] it was 33 µM; in assay [3], 34 µM.
Turning to `Cc1cccc2c1C(=O)OC2=O`, the inhibition result in assay [1], in assay [7] and in assay [5] was “inactive” throughout. Also, in assay [4], the Ki stood at 49 µM.
Take `Cc1cccc2c1C(=O)N(c1ccc(C(=O)O)c(O)c1)C2=O`: the results for the Ki in assay [3] and in assay [4] were 14 µM and 36 µM, respectively. For the same molecule, the inhibition result in assay [5] was “inactive”.
Consider `Cc1cccc2c1C(=O)N(c1cc(C(=O)O)cc(C(=O)O)c1)C2=O`, for which the inhibition result in assay [1] and in assay [5] was “inactive” in each case. Moreover, the Ki in assay [3] came to 20 µM.
For the molecule `CN1C(=O)c2cccc(CNc3ccc([N+](=O)[O-])c4ccccc34)c2C1=O`, the inhibition result in assay [1] and in assay [5] was “inactive” each time. Also, the Ki was determined as 10 µM in assay [3] and 92 µM in assay [4].
Turning to `CN1C(=O)c2cccc(CNc3cccc(S(N)(=O)=O)c3)c2C1=O`, the inhibition result in assay [1] and in assay [5] was “inactive” throughout. Besides, the Ki in assay [3] was 38 µM.
On to `CN1C(=O)c2cccc(CNc3ccc(S(=O)(=O)O)cc3)c2C1=O`, for which the Ki was 33 µM in assay [3] and 42 µM in assay [4]. Besides, in assay [5], the inhibition entry is “inactive”.
Take `CN1C(=O)c2cccc(CNCCP(=O)(O)O)c2C1=O`: the inhibition result in assay [1] and in assay [5] was “inactive” throughout. In assay [4], this molecule gave a Ki of 14 µM.
As for `CN1C(=O)c2cccc(CNc3ccc(C#N)cc3)c2C1=O`, the inhibition entry in assay [1] and in assay [5] was “inactive” each time. The same molecule displayed a Ki in assay [3] of 51 µM.
As to `Cc1cccc2c1C(=O)N(c1ccc(C#N)cc1)C2=O`, the inhibition entry in assay [1] was “inactive”. Also, the Ki in assay [2] came to 8 µM; in assay [3], 22 µM; in assay [4], 31 µM.
Regarding `Cc1cccc2c1C(=O)N(c1cccc(O)c1)C2=O`, the inhibition result in assay [1] is “inactive”. Besides, the Ki in assay [2] amounted to 61 µM; in assay [3], 93 µM.
Consider `Cc1cccc2c1C(=O)N(c1ccc(C(F)(F)F)cc1)C2=O`, for which the inhibition entry in assay [1] is “inactive”. For the same molecule, the Ki in assay [2] was found to be 60 µM; in assay [3], 14 µM; in assay [4] it was 18 µM.
